Results from PMC10133576, “Interactions between curcumin and human salt-induced kinase 3 elucidated from computational tools and experimental methods” (Frontiers in Pharmacology, 2023).

Target: human salt-induced kinase 3 (SIK3) (Homo sapiens, UniProt Q9Y2K2)
Experiment: KinaseProfiler radiometric protein kinase assay (Eurofins), ATP at Km
Type: biochemical

human salt-induced kinase 3 (SIK3), sequence (Q9Y2K2 whole entry): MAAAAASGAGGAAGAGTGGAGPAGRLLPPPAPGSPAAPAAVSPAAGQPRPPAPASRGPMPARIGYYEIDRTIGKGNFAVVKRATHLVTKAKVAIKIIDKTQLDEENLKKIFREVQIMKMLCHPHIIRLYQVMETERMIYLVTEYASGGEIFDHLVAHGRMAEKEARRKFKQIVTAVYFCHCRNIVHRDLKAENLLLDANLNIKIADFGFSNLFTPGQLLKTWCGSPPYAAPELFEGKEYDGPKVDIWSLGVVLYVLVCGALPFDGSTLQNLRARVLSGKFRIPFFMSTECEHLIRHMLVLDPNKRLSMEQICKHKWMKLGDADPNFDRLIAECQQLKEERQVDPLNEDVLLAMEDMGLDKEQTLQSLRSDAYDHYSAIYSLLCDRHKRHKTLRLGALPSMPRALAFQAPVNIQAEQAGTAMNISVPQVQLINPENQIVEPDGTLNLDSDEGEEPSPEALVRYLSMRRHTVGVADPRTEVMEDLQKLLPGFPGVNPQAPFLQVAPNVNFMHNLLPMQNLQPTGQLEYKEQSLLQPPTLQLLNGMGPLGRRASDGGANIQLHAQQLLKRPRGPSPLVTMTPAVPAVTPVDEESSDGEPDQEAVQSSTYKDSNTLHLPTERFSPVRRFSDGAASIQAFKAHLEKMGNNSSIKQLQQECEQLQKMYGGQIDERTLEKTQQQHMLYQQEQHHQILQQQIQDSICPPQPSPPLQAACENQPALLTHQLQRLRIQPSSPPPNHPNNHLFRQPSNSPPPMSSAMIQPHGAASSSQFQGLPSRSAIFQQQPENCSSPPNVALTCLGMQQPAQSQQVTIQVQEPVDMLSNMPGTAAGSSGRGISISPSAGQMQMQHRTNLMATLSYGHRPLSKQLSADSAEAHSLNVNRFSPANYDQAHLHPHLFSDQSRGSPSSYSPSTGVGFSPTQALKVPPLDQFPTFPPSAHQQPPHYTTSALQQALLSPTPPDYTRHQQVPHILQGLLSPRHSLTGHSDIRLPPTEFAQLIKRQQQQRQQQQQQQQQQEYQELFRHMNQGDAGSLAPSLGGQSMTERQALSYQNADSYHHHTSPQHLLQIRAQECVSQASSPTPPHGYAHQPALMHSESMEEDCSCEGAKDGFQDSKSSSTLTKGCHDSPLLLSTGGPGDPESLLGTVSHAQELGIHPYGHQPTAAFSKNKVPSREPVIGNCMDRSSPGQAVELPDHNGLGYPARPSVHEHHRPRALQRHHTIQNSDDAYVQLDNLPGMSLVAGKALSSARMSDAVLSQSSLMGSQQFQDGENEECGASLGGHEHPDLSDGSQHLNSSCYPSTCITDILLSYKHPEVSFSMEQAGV

IC50: 131 nM
Compound: COc1cc(/C=C/C(=O)CC(=O)/C=C/c2ccc(O)c(OC)c2)ccc1O [curcumin]
